Source: patent publication US20240287138A1, “CYCLIC PEPTIDES FOR INHIBITING TNF RECEPTOR 1 ACTIVITY” (Merck Sharp & Dohme LLC, priority 2023, published 2024)
Where two headings read alike, the source gives them in different places. Numbered stars: 1 amine (or outer) side, 2 acyl side, 3 side chain; on linkers, the order of the positions; unused ones are H or OH. Bridge positions count the residues as written; N and C are the ends. Square brackets hold non-standard residues; d marks the D form. Peptide text beside a SMILES is read from it. * marks the point of attachment. Trp(βS-Me,7-OMe) = COc1cccc2c([C@H](C)[C@H](N)C(=O)O)c[nH]c12; Trp(1-CH2COOH) = N[C@@H](Cc1cn(CC(=O)O)c2ccccc12)C(=O)O; Ala(indazol-1-yl) = N[C@@H](Cn1ncc2ccccc21)C(=O)O; Trp(7-CN) = N#Cc1cccc2c(C[C@H](N)C(=O)O)c[nH]c12; Trp(7-Cl) = N[C@@H](Cc1c[nH]c2c(Cl)cccc12)C(=O)O; X20 = O=C1NCc2ccc(C[C@H](N[*:1])C(=O)[*:2])cc21; Phe(3-CONH2) = NC(=O)c1cccc(C[C@H](N)C(=O)O)c1; Phe(4-CONH2) = NC(=O)c1ccc(C[C@H](N)C(=O)O)cc1; Phe(4-COOH) = N[C@@H](Cc1ccc(C(=O)O)cc1)C(=O)O; 4Pal(3S-Me) = C[C@@H](c1ccncc1)[C@H](N)C(=O)O; Trp(7-aza) = N[C@@H](Cc1c[nH]c2ncccc12)C(=O)O; Phe(4-CH2NH2) = NCc1ccc(C[C@H](N)C(=O)O)cc1; dPro(trans-4-F) = O=C(O)[C@H]1C[C@H](F)CN1; dPro(4S-NH2) = N[C@@H]1CN[C@@H](C(=O)O)C1; Pip(5R-OH) = O=C(O)[C@@H]1CC[C@@H](O)CN1; αMeW = C[C@](N)(Cc1c[nH]c2ccccc12)C(=O)O; X1 = O=C([C@@H]1CC[C@H](N[*:1])C1)[*:2]; Pip(4-aza) = O=C(O)[C@@H]1CNCCN1; 4Pal = N[C@@H](Cc1ccncc1)C(=O)O; Abu(4-CN) = N#CCC[C@H](N)C(=O)O; Gly(cBu) = N[C@H](C(=O)O)C1CCC1; NMeE = CN[C@@H](CCC(=O)O)C(=O)O; dHyp = O=C(O)[C@H]1C[C@H](O)CN1; Gly(N-CH2CH2OH) = O=C(O)CNCCO; Ahp(2) = CCCCC[C@H](N)C(=O)O; αMeS = C[C@](N)(CO)C(=O)O; Carboxymethyl = O=C(O)C*; Nle = CCCC[C@H](N)C(=O)O; Sar = CNCC(=O)O

Assays:
[1] = target: T1, human soluble TNFR1 (sTNFR1) (Homo sapiens, UniProt P19438); assay: Human sTNFR1-peptide displacement assay (LanthaScreen Eu TR-FRET binding assay)
T1 construct: made in house; host or cells: Sf21 (baculovirus)
T1 sequence (P19438 with tags, fused parts or gaps): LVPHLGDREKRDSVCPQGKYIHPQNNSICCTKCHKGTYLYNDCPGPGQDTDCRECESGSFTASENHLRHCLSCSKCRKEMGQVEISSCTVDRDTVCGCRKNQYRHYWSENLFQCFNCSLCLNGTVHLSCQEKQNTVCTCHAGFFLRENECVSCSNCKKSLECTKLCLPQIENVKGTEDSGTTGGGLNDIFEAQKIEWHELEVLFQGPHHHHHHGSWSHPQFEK
Outline: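 Readout is the 665/615 nm TR-FRET ratio (Eu anti-His donor, streptavidin-Alexa647 acceptor), normalized to DMSO and saturating displacer, fit by Morrison-based five-parameter logistic for Kd^app. His-tagged sTNFR1 (1-211) prebound to 100 nM biotinylated peptide SEQ ID NO.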

[2] = target: T2, human TNFR2 ECD protein (Homo sapiens, UniProt P20333); assay: SPR off-target binding (selectivity) to human TNFR2 ECD
T2 construct: HRV 3C protease cleavage site (C); 6His (C, cleaved yes); made in house; host or cells: Sf21 insect cells (baculovirus), secreted
T2 sequence (P20333 23-257): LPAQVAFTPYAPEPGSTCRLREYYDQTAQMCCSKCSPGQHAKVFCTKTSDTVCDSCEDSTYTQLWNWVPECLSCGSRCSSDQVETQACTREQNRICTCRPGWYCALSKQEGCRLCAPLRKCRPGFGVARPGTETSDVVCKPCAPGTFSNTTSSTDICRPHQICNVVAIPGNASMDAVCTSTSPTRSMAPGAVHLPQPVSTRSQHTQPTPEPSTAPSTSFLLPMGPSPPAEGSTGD
Outline: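 SPR kinetics: peptides over captured avi-biotinylated receptor ECDs, TNFR1 for affinity, TNFR2 run in parallel for off-target binding. Running buffer HEPES pH 7.4 with 150 mM NaCl, 3 mM EDTA, 0.05% P20, 2% DMSO; surface regenerated between analytes. Affinity derived from kon/koff.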

[3] = displacement of biotinylated peptide SEQ ID NO. 1 from sTNFR1, 20 point titration, 5-parameter fit based on Morrison equation (tight binding), read-out: TR-FRET Kd^app
[4] = biotinylated human TNFR2 ECD on streptavidin chip, read-out: SPR hTNFR2 KD

| SMILES | Kd [1] [nM] | Kd [2] [nM] | Kd [1, 3] [nM] | Kd [2, 4] [nM] |
| --- | --- | --- | --- | --- |
| CCCC[C@@H]1NC(=O)[C@@H]2CC[C@@H](C2)NC(=O)[C@H]([C@@H](C)c2c[nH]c3c(OC)cccc23)NC(=O)CN(C)C(=O)[C@H](Cc2ccc(O)cc2)NC(=O)[C@H](Cc2ccc(OCC(=O)O)cc2)NC(=O)[C@](C)(CO)NC(=O)[C@H](Cc2c[nH]c3c(Cl)cccc23)NC(=O)[C@H](Cc2ccncc2)NC(=O)[C@H](CC(N)=O)NC(=O)[C@H](CCC(=O)O)N(C)C(=O)[C@H](Cc2c[nH]c3ccccc23)NC(=O)[C@@H]2CNCCN2C(=O)[C@H](Cc2ccncc2)NC1=O [SEQ ID NO. 80] (cyclo([4Pal][Trp(7-Cl)][αMeS]Y(Carboxymethyl)Y[Sar][Trp(βS-Me,7-OMe)][X1][Nle][4Pal][Pip(4-aza)]W[NMeE]N)) | 0.3 | > 1000 | – | – |
| CCCC[C@@H]1NC(=O)CSC[C@@H](C(N)=O)NC(=O)[C@](C)(Cc2c[nH]c3ccccc23)NC(=O)CN(C)C(=O)[C@H](Cc2ccc(O)cc2)NC(=O)[C@H](Cc2ccc(C(=O)O)cc2)NC(=O)[C@](C)(CO)NC(=O)[C@H](Cc2c[nH]c3c(Cl)cccc23)NC(=O)[C@H](Cc2ccncc2)NC(=O)[C@H](CC(N)=O)NC(=O)[C@H](CCC(=O)O)N(C)C(=O)[C@H](Cc2c[nH]c3ncccc23)NC(=O)[C@H](C2CCC2)NC(=O)[C@H](Cc2ccncc2)NC1=O [SEQ ID NO. 56] ({CH2CO}-[Nle][4Pal][Gly(cBu)][Trp(7-aza)][NMeE]N[4Pal][Trp(7-Cl)][αMeS][Phe(4-COOH)]Y[Sar][αMeW]C-NH2; thioether N-14) | 2 | > 1000 | – | – |
| CCCC[C@@H]1NC(=O)[C@@H]2CC[C@@H](C2)NC(=O)[C@H]([C@@H](C)c2c[nH]c3c(OC)cccc23)NC(=O)CN(C)C(=O)[C@H](Cc2ccc(O)cc2)NC(=O)[C@H](Cc2ccc(C(N)=O)cc2)NC(=O)[C@](C)(CO)NC(=O)[C@H](Cc2c[nH]c3c(Cl)cccc23)NC(=O)[C@H](Cc2ccncc2)NC(=O)[C@H](CC(N)=O)NC(=O)[C@H](CCC(=O)O)N(C)C(=O)[C@H](Cn2ncc3ccccc32)NC(=O)[C@@H]2CC[C@@H](O)CN2C(=O)[C@H](Cc2ccncc2)NC1=O [SEQ ID NO. 74] (cyclo([4Pal][Trp(7-Cl)][αMeS][Phe(4-CONH2)]Y[Sar][Trp(βS-Me,7-OMe)][X1][Nle][4Pal][Pip(5R-OH)][Ala(indazol-1-yl)][NMeE]N)) | 0.08 | > 1000 | – | – |
| CCCC[C@@H]1NC(=O)[C@@H]2CC[C@@H](C2)NC(=O)[C@H]([C@@H](C)c2c[nH]c3c(OC)cccc23)NC(=O)CN(C)C(=O)[C@H](Cc2ccc(O)cc2)NC(=O)[C@H](Cc2ccc(C(=O)O)cc2)NC(=O)[C@](C)(CO)NC(=O)[C@H](Cc2c[nH]c3c(Cl)cccc23)NC(=O)[C@H](Cc2ccncc2)NC(=O)[C@H](CC(N)=O)NC(=O)CN(CCO)C(=O)[C@H](Cc2c[nH]c3ccccc23)NC(=O)[C@@H]2CNCCN2C(=O)[C@H](Cc2ccncc2)NC1=O [SEQ ID NO. 72] (cyclo([4Pal][Trp(7-Cl)][αMeS][Phe(4-COOH)]Y[Sar][Trp(βS-Me,7-OMe)][X1][Nle][4Pal][Pip(4-aza)]W[Gly(N-CH2CH2OH)]N)) | 0.09 | > 1000 | – | – |
| CCCCC[C@@H]1NC(=O)[C@@H]2CC[C@@H](C2)NC(=O)[C@H]([C@@H](C)c2c[nH]c3c(OC)cccc23)NC(=O)CN(C)C(=O)[C@H](Cc2ccc(C(N)=O)cc2)NC(=O)[C@H](Cc2ccc(C(N)=O)cc2)NC(=O)[C@](C)(CO)NC(=O)[C@H](Cc2c[nH]c3c(C#N)cccc23)NC(=O)[C@H](Cc2ccc(C(=O)O)cc2)NC(=O)[C@H](CC(N)=O)NC(=O)[C@H]2C[C@H](O)CN2C(=O)[C@H](Cc2c[nH]c3ccccc23)NC(=O)[C@H](CCC#N)NC(=O)[C@H]([C@@H](C)c2ccncc2)NC1=O [SEQ ID NO. 79] (cyclo([Ahp(2)][4Pal(3S-Me)][Abu(4-CN)]W[dHyp]N[Phe(4-COOH)][Trp(7-CN)][αMeS][Phe(4-CONH2)][Phe(4-CONH2)][Sar][Trp(βS-Me,7-OMe)][X1])) | 0.15 | > 1000 | – | – |
| CCCC[C@@H]1NC(=O)[C@@H]2CC[C@@H](C2)NC(=O)[C@H]([C@@H](C)c2c[nH]c3c(OC)cccc23)NC(=O)CN(C)C(=O)[C@H](Cc2ccc(CN)cc2)NC(=O)[C@H](Cc2ccc(C(N)=O)cc2)NC(=O)[C@](C)(CO)NC(=O)[C@H](Cc2c[nH]c3c(C#N)cccc23)NC(=O)[C@H](Cc2ccc(C(=O)O)cc2)NC(=O)[C@H](CC(N)=O)NC(=O)[C@H]2C[C@H](O)CN2C(=O)[C@H](Cc2c[nH]c3ccccc23)NC(=O)[C@@H]2CC[C@@H](O)CN2C(=O)[C@H](Cc2ccncc2)NC1=O [SEQ ID NO. 48] (cyclo([4Pal][Pip(5R-OH)]W[dHyp]N[Phe(4-COOH)][Trp(7-CN)][αMeS][Phe(4-CONH2)][Phe(4-CH2NH2)][Sar][Trp(βS-Me,7-OMe)][X1][Nle])) | – | – | 0.15 | > 1000 |
| CCCC[C@@H]1NC(=O)[C@@H]2CC[C@@H](C2)NC(=O)[C@H]([C@@H](C)c2c[nH]c3c(OC)cccc23)NC(=O)CN(C)C(=O)[C@H](Cc2ccc(C(N)=O)cc2)NC(=O)[C@H](Cc2ccc(C(N)=O)cc2)NC(=O)[C@](C)(CO)NC(=O)[C@H](Cc2c[nH]c3c(Cl)cccc23)NC(=O)[C@H](Cc2ccc(C(=O)O)cc2)NC(=O)[C@H](CC(N)=O)NC(=O)[C@H]2C[C@H](O)CN2C(=O)[C@H](Cc2c[nH]c3ccccc23)NC(=O)[C@@H]2CC[C@@H](O)CN2C(=O)[C@H](Cc2ccncc2)NC1=O [SEQ ID NO. 196] (cyclo([4Pal][Pip(5R-OH)]W[dHyp]N[Phe(4-COOH)][Trp(7-Cl)][αMeS][Phe(4-CONH2)][Phe(4-CONH2)][Sar][Trp(βS-Me,7-OMe)][X1][Nle])) | – | – | 0.09 | > 1000 |
| CCCC[C@@H]1NC(=O)[C@@H]2CC[C@@H](C2)NC(=O)[C@H]([C@@H](C)c2c[nH]c3c(OC)cccc23)NC(=O)CN(C)C(=O)[C@H](Cc2cccc(C(N)=O)c2)NC(=O)[C@H](Cc2ccc(C(N)=O)cc2)NC(=O)[C@](C)(CO)NC(=O)[C@H](Cc2c[nH]c3c(C#N)cccc23)NC(=O)[C@H](Cc2ccc(C(=O)O)cc2)NC(=O)[C@H](CC(N)=O)NC(=O)[C@H]2C[C@H](F)CN2C(=O)[C@H](Cc2c[nH]c3ccccc23)NC(=O)[C@@H]2CC[C@@H](O)CN2C(=O)[C@H](Cc2ccncc2)NC1=O [SEQ ID NO. 21] (cyclo([4Pal][Pip(5R-OH)]W[dPro(trans-4-F)]N[Phe(4-COOH)][Trp(7-CN)][αMeS][Phe(4-CONH2)][Phe(3-CONH2)][Sar][Trp(βS-Me,7-OMe)][X1][Nle])) | 0.04 | > 1000 | – | – |
| CCCC[C@@H]1NC(=O)[C@@H]2CC[C@@H](C2)NC(=O)[C@H]([C@@H](C)c2c[nH]c3c(OC)cccc23)NC(=O)CN(C)C(=O)[C@H](Cc2ccc(C(N)=O)cc2)NC(=O)[C@H](Cc2ccc(C(N)=O)cc2)NC(=O)[C@](C)(CO)NC(=O)[C@H](Cc2c[nH]c3c(C#N)cccc23)NC(=O)[C@H](Cc2ccc3c(c2)C(=O)NC3)NC(=O)[C@H](CC(N)=O)NC(=O)[C@H]2C[C@H](OCC(=O)O)CN2C(=O)[C@H](Cc2cn(CC(=O)O)c3ccccc23)NC(=O)[C@@H]2CC[C@@H](O)CN2C(=O)[C@H](Cc2ccncc2)NC1=O [SEQ ID NO. 22] (cyclo([4Pal][Pip(5R-OH)][Trp(1-CH2COOH)][dHyp](Carboxymethyl)N[X20][Trp(7-CN)][αMeS][Phe(4-CONH2)][Phe(4-CONH2)][Sar][Trp(βS-Me,7-OMe)][X1][Nle])) | – | – | 0.08 | > 1000 |
| CCCC[C@@H]1NC(=O)[C@@H]2CC[C@@H](C2)NC(=O)[C@H]([C@@H](C)c2c[nH]c3c(OC)cccc23)NC(=O)CN(C)C(=O)[C@H](Cc2ccc(C(=O)O)cc2)NC(=O)[C@H](Cc2ccc(C(N)=O)cc2)NC(=O)[C@](C)(CO)NC(=O)[C@H](Cc2c[nH]c3c(C#N)cccc23)NC(=O)[C@H](Cc2ccc(C(=O)O)cc2)NC(=O)[C@H](CC(N)=O)NC(=O)[C@H]2C[C@H](N)CN2C(=O)[C@H](Cc2cn(CC(=O)O)c3ccccc23)NC(=O)[C@@H]2CC[C@@H](O)CN2C(=O)[C@H](Cc2ccncc2)NC1=O [SEQ ID NO. 104] (cyclo([4Pal][Pip(5R-OH)][Trp(1-CH2COOH)][dPro(4S-NH2)]N[Phe(4-COOH)][Trp(7-CN)][αMeS][Phe(4-CONH2)][Phe(4-COOH)][Sar][Trp(βS-Me,7-OMe)][X1][Nle])) | – | – | 0.09 | > 1000 |
